Assay results from patent US20110143948A1, “MOLECULAR SIGNATURES AND BIOMARKERS ASSOCIATED WITH MELANOMA AND METHODS OF USE THEREOF” (priority 2008, published 2011).

Tested on: ncRNAs (SEQ ID NO 28-89)
Test: ncRNA arrays of melanocytes, keratinocytes, normal skin, melanoma cell lines and patient samples
Design: species or system human
Settings: for ncRNA array expression, patient 2: melanoma patient 2 sample compared to normal skin; for ncRNA array expression, patient 3: melanoma patient 3 sample compared to normal skin; for ncRNA array expression, patient 4: melanoma patient 4 sample compared to normal skin; for ncRNA array expression, patient 5: melanoma patient 5 sample compared to normal skin; for ncRNA array expression, patient 6: melanoma patient 6 sample compared to normal skin; for ncRNA array expression, patient 7: melanoma patient 7 sample compared to normal skin; for ncRNA array expression, patient 8: melanoma patient 8 sample compared to normal skin; for ncRNA array expression, patient 9: melanoma patient 9 sample compared to normal skin; for ncRNA array expression, patient 10: melanoma patient 10 sample compared to normal skin; for ncRNA array expression, patient 19: melanoma patient 19 sample compared to normal skin; for ncRNA array expression, patient 20: melanoma patient 20 sample compared to normal skin; for ncRNA array expression, patient 21: melanoma patient 21 sample compared to normal skin; for ncRNA array expression, patient 22: melanoma patient 22 sample compared to normal skin; for ncRNA array expression, patient 23: melanoma patient 23 sample compared to normal skin; for ncRNA array expression, patient 24: melanoma patient 24 sample compared to normal skin; for ncRNA array expression, patient 25: melanoma patient 25 sample compared to normal skin; for ncRNA array expression, patient 26: melanoma patient 26 sample compared to normal skin; for ncRNA array expression, patient 27: melanoma patient 27 sample compared to normal skin; for ncRNA array expression, patient 28: melanoma patient 28 sample compared to normal skin; for ncRNA array expression, patient 29: melanoma patient 29 sample compared to normal skin; for ncRNA array expression, patient 30: melanoma patient 30 sample compared to normal skin
Summary of the method: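 Differential ncRNA expression was defined against melanocytes or normal skin after subtracting keratinocyte-specific signals, with confirmation by qRT-PCR and Northern blot. Samples were melanoma cell lines, patient tumours, melanocytes, keratinocytes and normal skin, hybridised to a >10,000-probe (>200 nt) ncRNA array that also carries RefSeq mRNA probes.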

SEQ ID NO 47 (GTATTTGTAATATTTGATTTGCTTTTAGCAGAGAAAACAATAAAAGAATCCAGGAAAAGT; listed as DNA, chemistry not given here; listed as Homo sapiens)
ncRNA array expression, patient 2: −2.442 | ncRNA array expression, patient 3: −2.494 | ncRNA array expression, patient 4: −2.265 | ncRNA array expression, patient 5: −2.234 | ncRNA array expression, patient 6: −2.076 | ncRNA array expression, patient 7: −2.368 | ncRNA array expression, patient 8: −1.927 | ncRNA array expression, patient 9: −2.484 | ncRNA array expression, patient 10: −1.685 | ncRNA array expression, patient 19: −2.485 | ncRNA array expression, patient 20: −2.495 | ncRNA array expression, patient 21: −2.249 | ncRNA array expression, patient 22: −2.41 | ncRNA array expression, patient 23: −2.401 | ncRNA array expression, patient 24: −2.489 | ncRNA array expression, patient 25: −2.453 | ncRNA array expression, patient 26: −2.486 | ncRNA array expression, patient 27: −2.489 | ncRNA array expression, patient 28: −2.481 | ncRNA array expression, patient 29: −2.234 | ncRNA array expression, patient 30: −1.529

SEQ ID NO 48 (ACTTATATTCAGAGCATGTGGATTGGGACTCTGAAGAACAACTTTATGGTGGACACCTTC; listed as DNA, chemistry not given here; listed as Homo sapiens)
ncRNA array expression, patient 2: 0.9515 | ncRNA array expression, patient 3: 3.672 | ncRNA array expression, patient 4: 3.353 | ncRNA array expression, patient 5: 0.2362 | ncRNA array expression, patient 6: −0.1733 | ncRNA array expression, patient 7: 0.648 | ncRNA array expression, patient 8: 3.309 | ncRNA array expression, patient 9: −0.2759 | ncRNA array expression, patient 10: 2.286 | ncRNA array expression, patient 19: 3.38 | ncRNA array expression, patient 20: 1.713 | ncRNA array expression, patient 21: 1.144 | ncRNA array expression, patient 22: −0.4681 | ncRNA array expression, patient 23: −0.4589 | ncRNA array expression, patient 24: 2.492 | ncRNA array expression, patient 25: 4.7 | ncRNA array expression, patient 26: 2.981 | ncRNA array expression, patient 27: 4.712 | ncRNA array expression, patient 28: 0.2102 | ncRNA array expression, patient 29: 0.1927 | ncRNA array expression, patient 30: −0.334

SEQ ID NO 49 (CGATGGCTTGTCATTGTCCCCTGTCCTGGAACAATAAAGCAAGTGCCTTGTGGTCTCACT; listed as DNA, chemistry not given here; listed as Homo sapiens)
ncRNA array expression, patient 2: −3.131 | ncRNA array expression, patient 3: −1.901 | ncRNA array expression, patient 4: −2.3226 | ncRNA array expression, patient 5: −1.9036 | ncRNA array expression, patient 6: 0.7986 | ncRNA array expression, patient 7: −1.477 | ncRNA array expression, patient 8: −1.974 | ncRNA array expression, patient 9: −2.214 | ncRNA array expression, patient 10: −4.429 | ncRNA array expression, patient 19: −2.094 | ncRNA array expression, patient 20: −2.123 | ncRNA array expression, patient 21: −2.207 | ncRNA array expression, patient 22: −2.118 | ncRNA array expression, patient 23: −1.787 | ncRNA array expression, patient 24: −1.642 | ncRNA array expression, patient 25: −2.472 | ncRNA array expression, patient 26: −3.037 | ncRNA array expression, patient 27: −2.447 | ncRNA array expression, patient 28: −2.621 | ncRNA array expression, patient 29: −2.39 | ncRNA array expression, patient 30: −0.9259

SEQ ID NO 50 (GTTATTATAACCAATGCAGACTTTAAAATCCCACCTGGACATCGGGTGAGAGGAGGAGGG; listed as DNA, chemistry not given here; listed as Homo sapiens)
ncRNA array expression, patient 2: −2.415 | ncRNA array expression, patient 3: −1.962 | ncRNA array expression, patient 4: −2.102 | ncRNA array expression, patient 5: −1.782 | ncRNA array expression, patient 6: −1.159 | ncRNA array expression, patient 7: −1.978 | ncRNA array expression, patient 8: −1.68 | ncRNA array expression, patient 9: −2.03 | ncRNA array expression, patient 10: −1.537 | ncRNA array expression, patient 19: −0.5347 | ncRNA array expression, patient 20: −1.776 | ncRNA array expression, patient 21: −1.854 | ncRNA array expression, patient 22: −1.427 | ncRNA array expression, patient 23: −0.1575 | ncRNA array expression, patient 24: −1.434 | ncRNA array expression, patient 25: −1.804 | ncRNA array expression, patient 26: −1.952 | ncRNA array expression, patient 27: −1.707 | ncRNA array expression, patient 28: −1.738 | ncRNA array expression, patient 29: −2.317 | ncRNA array expression, patient 30: −0.3312

SEQ ID NO 51 (ATGTATTTTAGGTAATAAGATTTTTATCAATTGTGTCTTTTTCTTTCTTTGCTTTCTATA; listed as DNA, chemistry not given here; listed as Homo sapiens)
ncRNA array expression, patient 2: 0.8922 | ncRNA array expression, patient 3: 2.683 | ncRNA array expression, patient 4: 2.264 | ncRNA array expression, patient 5: 1.042 | ncRNA array expression, patient 6: 1.115 | ncRNA array expression, patient 7: 1.14 | ncRNA array expression, patient 8: 2.048 | ncRNA array expression, patient 9: 0.7789 | ncRNA array expression, patient 10: 0.8572 | ncRNA array expression, patient 19: 0.7228 | ncRNA array expression, patient 20: 1.113 | ncRNA array expression, patient 21: 1.298 | ncRNA array expression, patient 22: 0.5543 | ncRNA array expression, patient 23: 0.1918 | ncRNA array expression, patient 24: 1.761 | ncRNA array expression, patient 25: 2.552 | ncRNA array expression, patient 26: 1.145 | ncRNA array expression, patient 27: 1.166 | ncRNA array expression, patient 28: 0.879 | ncRNA array expression, patient 29: 0.7193 | ncRNA array expression, patient 30: −0.4325

SEQ ID NO 52 (TTTTCTTAGTCTTTTTACTTTTTCCATTATATTCTTTGATATATTTGAGAAAATGGCTTG; listed as DNA, chemistry not given here; listed as Homo sapiens)
ncRNA array expression, patient 2: 2.853 | ncRNA array expression, patient 3: 1.986 | ncRNA array expression, patient 4: 3.663 | ncRNA array expression, patient 5: 1.552 | ncRNA array expression, patient 6: 0.7809 | ncRNA array expression, patient 7: 0.9779 | ncRNA array expression, patient 8: 2.426 | ncRNA array expression, patient 9: 0.8678 | ncRNA array expression, patient 10: 0.7332 | ncRNA array expression, patient 19: 0.9835 | ncRNA array expression, patient 20: −0.5729 | ncRNA array expression, patient 21: 0.7286 | ncRNA array expression, patient 22: −0.2277 | ncRNA array expression, patient 23: −0.706 | ncRNA array expression, patient 24: −0.4016 | ncRNA array expression, patient 25: 3.265 | ncRNA array expression, patient 26: 3.428 | ncRNA array expression, patient 27: 0.4479 | ncRNA array expression, patient 28: 2.064 | ncRNA array expression, patient 29: 1.478 | ncRNA array expression, patient 30: −0.5811
